Key:
[1] = biological target: T1, Nuclear receptor ROR-gamma (Homo sapiens, UniProt P51449); test: Binding affinity to recombinant human RORgamma LBD (237 to 497 residues) expressed in Escherichia coli BL21 (DE3) GOLD by 1,8-ANS dye-based thermofluor assay
T1 sequence (P51449 whole entry): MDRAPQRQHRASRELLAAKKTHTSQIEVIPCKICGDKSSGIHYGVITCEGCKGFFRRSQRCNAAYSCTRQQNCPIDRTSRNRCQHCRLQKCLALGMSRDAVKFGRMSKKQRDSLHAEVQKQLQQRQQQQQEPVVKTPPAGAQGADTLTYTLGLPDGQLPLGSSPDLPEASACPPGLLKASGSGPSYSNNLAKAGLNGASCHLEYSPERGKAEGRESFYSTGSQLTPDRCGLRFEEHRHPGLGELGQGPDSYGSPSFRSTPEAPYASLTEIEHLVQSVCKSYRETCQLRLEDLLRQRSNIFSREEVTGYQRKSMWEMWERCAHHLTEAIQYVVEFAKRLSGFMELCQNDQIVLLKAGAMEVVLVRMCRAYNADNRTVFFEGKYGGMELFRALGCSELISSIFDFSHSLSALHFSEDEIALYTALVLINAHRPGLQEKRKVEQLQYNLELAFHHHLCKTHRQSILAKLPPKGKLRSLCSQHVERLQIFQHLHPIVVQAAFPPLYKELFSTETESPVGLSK

[2] = biological target: Type-1 angiotensin II receptor (Homo sapiens) (UniProt P30556); test: Displacement of [125I][Sar1,Ile8]-AT-II from human recombinant AT1 receptor at 10 uM after 120 mins by scintillation counting analysis relative to control
Sequence of Type-1 angiotensin II receptor (Homo sapiens) (P30556 whole entry): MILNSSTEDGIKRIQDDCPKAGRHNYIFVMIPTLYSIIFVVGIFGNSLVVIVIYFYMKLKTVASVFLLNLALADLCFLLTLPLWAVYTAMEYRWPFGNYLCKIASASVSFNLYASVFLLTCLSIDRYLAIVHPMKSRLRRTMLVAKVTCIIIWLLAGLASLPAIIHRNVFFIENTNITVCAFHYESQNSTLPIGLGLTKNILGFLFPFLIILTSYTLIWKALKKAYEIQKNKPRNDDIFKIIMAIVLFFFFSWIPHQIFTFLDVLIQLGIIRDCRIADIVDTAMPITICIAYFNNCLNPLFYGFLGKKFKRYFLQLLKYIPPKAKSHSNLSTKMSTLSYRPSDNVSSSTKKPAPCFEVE

Rattus norvegicus [3] = species: Rattus norvegicus; test: Binding affinity to rat GABA receptor at 10 uM after 60 mins by radioligand binding assay relative to control
Mu-type opioid receptor [4] = biological target: T2, Mu-type opioid receptor (Homo sapiens, UniProt P35372); test: Displacement of [3H]DAMGO from human recombinant mu receptor at 10 uM after 120 mins by scintillation counting analysis relative to control
T2 sequence (P35372 whole entry): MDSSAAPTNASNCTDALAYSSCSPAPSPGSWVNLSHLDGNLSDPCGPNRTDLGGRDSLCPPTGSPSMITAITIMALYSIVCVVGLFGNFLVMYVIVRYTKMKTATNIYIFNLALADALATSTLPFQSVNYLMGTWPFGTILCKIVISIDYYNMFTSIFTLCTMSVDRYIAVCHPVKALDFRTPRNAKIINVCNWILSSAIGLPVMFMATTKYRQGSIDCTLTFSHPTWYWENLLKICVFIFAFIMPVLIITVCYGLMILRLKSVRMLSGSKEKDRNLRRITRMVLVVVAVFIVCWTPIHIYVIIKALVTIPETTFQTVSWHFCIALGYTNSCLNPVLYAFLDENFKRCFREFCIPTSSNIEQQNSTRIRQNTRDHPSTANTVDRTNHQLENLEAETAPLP

[5] = biological target: 5-hydroxytryptamine receptor 2A (Homo sapiens, UniProt P28223); test: Displacement of [3H]ketanserin human recombinant 5-HT2A receptor at 10 uM after 60 mins by scintillation counting analysis relative to control
Sequence of 5-hydroxytryptamine receptor 2A (P28223 whole entry): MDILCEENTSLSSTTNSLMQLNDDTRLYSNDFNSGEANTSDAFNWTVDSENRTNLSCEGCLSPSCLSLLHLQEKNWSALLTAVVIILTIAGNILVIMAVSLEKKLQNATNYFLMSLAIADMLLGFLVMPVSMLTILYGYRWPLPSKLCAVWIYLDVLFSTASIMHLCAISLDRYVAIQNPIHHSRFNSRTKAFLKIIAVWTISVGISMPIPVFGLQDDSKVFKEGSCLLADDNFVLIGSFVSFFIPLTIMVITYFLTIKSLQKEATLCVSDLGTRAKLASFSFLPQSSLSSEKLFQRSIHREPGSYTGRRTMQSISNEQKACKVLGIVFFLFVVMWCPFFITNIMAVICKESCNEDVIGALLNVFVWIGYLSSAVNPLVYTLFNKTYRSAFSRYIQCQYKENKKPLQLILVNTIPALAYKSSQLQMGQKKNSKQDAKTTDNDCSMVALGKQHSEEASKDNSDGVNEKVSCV

[6] = biological target: 5-hydroxytryptamine receptor 2B (Homo sapiens, UniProt P41595); test: Displacement of [125I]+/-DOI from human recombinant 5-HT2B receptor at 10 uM after 60 mins by scintillation counting analysis relative to control
Sequence of 5-hydroxytryptamine receptor 2B (P41595 whole entry): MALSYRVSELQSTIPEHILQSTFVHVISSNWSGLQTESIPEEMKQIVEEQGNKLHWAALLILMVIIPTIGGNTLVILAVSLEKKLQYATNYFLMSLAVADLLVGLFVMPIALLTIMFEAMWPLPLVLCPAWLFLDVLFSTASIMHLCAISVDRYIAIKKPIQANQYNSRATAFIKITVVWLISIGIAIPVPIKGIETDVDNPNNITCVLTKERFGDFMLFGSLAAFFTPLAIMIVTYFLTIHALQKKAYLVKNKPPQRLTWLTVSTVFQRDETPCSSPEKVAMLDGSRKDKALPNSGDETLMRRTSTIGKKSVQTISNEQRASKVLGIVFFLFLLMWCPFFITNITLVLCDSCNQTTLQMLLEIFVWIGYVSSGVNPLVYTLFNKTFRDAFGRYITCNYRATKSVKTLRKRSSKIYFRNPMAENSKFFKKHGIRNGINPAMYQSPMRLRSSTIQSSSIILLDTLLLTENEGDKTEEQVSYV

[7] = biological target: T3, Sodium-dependent noradrenaline transporter (Homo sapiens, UniProt P23975); test: Displacement of [3H]nisoxetine from recombinant human norepinephrine transporter at 10 uM after 120 mins by scintillation counting analysis relative to control
T3 sequence (P23975 whole entry): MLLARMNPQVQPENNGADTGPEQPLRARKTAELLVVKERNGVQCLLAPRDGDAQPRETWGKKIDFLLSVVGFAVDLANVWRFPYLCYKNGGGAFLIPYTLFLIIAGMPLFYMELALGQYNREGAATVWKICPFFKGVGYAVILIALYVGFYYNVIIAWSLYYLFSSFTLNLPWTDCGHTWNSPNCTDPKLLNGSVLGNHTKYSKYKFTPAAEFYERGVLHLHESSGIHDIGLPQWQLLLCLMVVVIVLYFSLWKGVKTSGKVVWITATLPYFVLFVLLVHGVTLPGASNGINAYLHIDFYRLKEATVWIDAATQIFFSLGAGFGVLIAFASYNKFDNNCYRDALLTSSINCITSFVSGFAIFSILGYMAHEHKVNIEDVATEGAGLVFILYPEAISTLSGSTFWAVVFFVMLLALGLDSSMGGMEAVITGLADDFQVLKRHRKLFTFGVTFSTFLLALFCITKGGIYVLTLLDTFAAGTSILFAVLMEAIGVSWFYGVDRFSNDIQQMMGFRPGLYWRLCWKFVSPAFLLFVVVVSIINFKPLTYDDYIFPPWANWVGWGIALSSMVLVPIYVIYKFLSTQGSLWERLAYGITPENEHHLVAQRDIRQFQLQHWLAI

[8] = biological target: Type-1 angiotensin II receptor (Homo sapiens) (UniProt P30556); test: Displacement of [125I][Sar1,Ile8]-AT-II from human recombinant AT1 receptor at 1 uM after 120 mins by scintillation counting analysis relative to control
Rattus norvegicus [9] = species: Rattus norvegicus; test: Binding affinity to rat GABA receptor at 1 uM after 60 mins by agonist radioligand binding assay relative to control
[10] = biological target: C-C chemokine receptor type 1 (Homo sapiens) (UniProt P32246); test: Displacement of [125I]MIP-1alpha from human recombinant CCR1 receptor at 1 uM after 120 mins by scintillation counting analysis relative to control
Sequence of C-C chemokine receptor type 1 (Homo sapiens) (P32246 whole entry): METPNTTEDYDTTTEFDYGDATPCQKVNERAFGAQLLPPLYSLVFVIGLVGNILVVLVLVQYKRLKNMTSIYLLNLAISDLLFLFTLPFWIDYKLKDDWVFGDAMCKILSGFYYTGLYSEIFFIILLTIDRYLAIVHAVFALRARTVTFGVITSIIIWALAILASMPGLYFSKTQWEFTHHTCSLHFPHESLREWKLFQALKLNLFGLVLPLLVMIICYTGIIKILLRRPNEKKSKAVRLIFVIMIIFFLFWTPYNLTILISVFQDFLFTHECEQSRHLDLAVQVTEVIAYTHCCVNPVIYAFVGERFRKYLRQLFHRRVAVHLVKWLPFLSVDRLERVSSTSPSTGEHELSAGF

Histamine H2 receptor = Histamine H2 receptor (Homo sapiens, UniProt P25021); test: Displacement of [125I]APT from human recombinant histamine H2 receptor at 1 uM after 120 mins by scintillation counting analysis relative to control
Sequence of Histamine H2 receptor (P25021 whole entry): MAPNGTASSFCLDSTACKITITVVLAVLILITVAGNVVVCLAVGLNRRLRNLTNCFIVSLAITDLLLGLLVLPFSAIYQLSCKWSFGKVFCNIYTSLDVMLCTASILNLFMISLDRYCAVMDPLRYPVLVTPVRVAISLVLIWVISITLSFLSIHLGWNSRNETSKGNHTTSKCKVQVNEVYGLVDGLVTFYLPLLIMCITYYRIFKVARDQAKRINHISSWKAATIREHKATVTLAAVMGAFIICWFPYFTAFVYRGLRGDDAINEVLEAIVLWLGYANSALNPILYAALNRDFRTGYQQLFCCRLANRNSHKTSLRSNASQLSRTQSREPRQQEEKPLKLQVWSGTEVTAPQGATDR

[11] = biological target: Neurotensin receptor type 1 (Homo sapiens, UniProt P30989); test: Displacement of [125I]Tyr3-neurotensin from human recombinant NTS1 receptor at 1 uM after 120 mins by scintillation counting analysis relative to control
Sequence of Neurotensin receptor type 1 (P30989 whole entry): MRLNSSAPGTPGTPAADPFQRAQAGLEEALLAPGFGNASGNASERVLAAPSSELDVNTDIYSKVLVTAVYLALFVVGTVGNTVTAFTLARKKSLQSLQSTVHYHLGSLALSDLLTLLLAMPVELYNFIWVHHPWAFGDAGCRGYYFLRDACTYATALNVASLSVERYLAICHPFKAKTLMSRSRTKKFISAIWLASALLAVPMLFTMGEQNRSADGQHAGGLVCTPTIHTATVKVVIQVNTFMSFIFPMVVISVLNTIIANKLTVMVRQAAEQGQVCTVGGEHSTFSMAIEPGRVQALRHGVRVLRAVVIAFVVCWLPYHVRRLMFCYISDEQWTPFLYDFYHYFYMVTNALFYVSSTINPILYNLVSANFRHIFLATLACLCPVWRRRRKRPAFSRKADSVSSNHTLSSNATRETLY

Mu-type opioid receptor [12] = biological target: T2, Mu-type opioid receptor; test: Displacement of [3H]DAMGO from human recombinant mu receptor at 1 uM after 120 mins by scintillation counting analysis relative to control
[13] = biological target: Adrenergic receptor alpha-2 (Rattus norvegicus, UniProt P22086+P19328+P22909); test: Displacement of [3H]-RX 821002 from rat alpha2 adrenoceptor after 60 mins by scintillation counting analysis; format: protein assay
[14] = biological target: 5-hydroxytryptamine receptor 1B (Rattus norvegicus, UniProt P28564); test: Displacement of [125I]-CYP from rat brain 5-HT1B receptor after 120 mins by scintillation counting analysis
Sequence of 5-hydroxytryptamine receptor 1B (P28564 whole entry): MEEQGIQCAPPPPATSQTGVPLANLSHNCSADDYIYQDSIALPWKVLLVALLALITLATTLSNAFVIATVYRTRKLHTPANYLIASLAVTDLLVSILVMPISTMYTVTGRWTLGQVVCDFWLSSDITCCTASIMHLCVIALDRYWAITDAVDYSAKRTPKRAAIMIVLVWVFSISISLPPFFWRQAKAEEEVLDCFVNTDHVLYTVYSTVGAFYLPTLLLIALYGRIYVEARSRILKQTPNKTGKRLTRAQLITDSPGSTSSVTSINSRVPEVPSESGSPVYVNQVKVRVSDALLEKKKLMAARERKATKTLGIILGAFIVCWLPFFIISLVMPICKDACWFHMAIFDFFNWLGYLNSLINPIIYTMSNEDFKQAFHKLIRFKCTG

[15] = biological target: T3, Sodium-dependent noradrenaline transporter; test: Displacement of [3H]nisoxetine from recombinant human norepinephrine transporter after 120 mins by scintillation counting analysis
[16] = biological target: Epidermal growth factor receptor (Homo sapiens) (UniProt P00533); test: Inhibition of recombinant GST-tagged human EGFR (668 to 1210 residues) expressed in baculovirus expression system at 10 uM in presence of ATP relative to control
PXR (NR1I2) = biological target: T4, PXR (NR1I2) (Homo sapiens, UniProt O75469); test: […] at PXR LBD (unknown origin) expressed in HEK293 cells […] at 10 uM after 16 hrs by luciferase reporter gene assay relative to rifampicin; format: ADME, cell-based; conditions: HEK293 cells expressing PXR LBD, read-out: Efficacy
T4 sequence (O75469 whole entry): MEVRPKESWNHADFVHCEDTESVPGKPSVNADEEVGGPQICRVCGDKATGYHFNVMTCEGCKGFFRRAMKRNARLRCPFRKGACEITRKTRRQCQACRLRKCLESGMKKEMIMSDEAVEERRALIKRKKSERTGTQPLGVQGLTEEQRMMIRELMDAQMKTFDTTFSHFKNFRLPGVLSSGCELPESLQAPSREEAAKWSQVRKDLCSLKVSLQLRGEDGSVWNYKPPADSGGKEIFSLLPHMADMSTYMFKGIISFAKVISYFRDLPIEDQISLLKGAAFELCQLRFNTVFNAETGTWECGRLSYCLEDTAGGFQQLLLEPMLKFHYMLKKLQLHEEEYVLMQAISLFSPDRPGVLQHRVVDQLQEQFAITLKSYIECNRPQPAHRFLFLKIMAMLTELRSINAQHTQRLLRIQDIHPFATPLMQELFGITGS

Cytochrome P450 2C8 = biological target: T5, Cytochrome P450 2C8 (Homo sapiens, UniProt P10632); test: Inhibition of CYP2C8 (unknown origin); format: ADME
T5 sequence (P10632 whole entry): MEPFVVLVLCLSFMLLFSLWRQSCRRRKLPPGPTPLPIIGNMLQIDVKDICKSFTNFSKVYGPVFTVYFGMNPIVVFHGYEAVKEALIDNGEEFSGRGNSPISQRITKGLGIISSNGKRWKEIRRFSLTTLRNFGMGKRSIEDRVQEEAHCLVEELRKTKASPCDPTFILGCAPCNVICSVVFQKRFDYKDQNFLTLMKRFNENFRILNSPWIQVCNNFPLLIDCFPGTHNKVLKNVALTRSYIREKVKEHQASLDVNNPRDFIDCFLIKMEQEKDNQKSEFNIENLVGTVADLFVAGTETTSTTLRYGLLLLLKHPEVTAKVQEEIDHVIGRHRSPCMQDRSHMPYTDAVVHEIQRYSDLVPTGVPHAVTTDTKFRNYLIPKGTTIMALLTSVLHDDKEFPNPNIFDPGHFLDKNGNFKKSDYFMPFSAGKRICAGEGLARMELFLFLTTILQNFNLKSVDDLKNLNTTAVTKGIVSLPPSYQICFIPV

Q: Which results are given for `CC(C)(C)NS(=O)(=O)c1ccc(-c2sc(C(=O)N[C@H]3C[C@H](C(=O)O)C3)nc2CC2CCCCC2)c2ccccc12`?
A: Kd [1]: 0.12 nM; inhibition [2]: < 10%; inhibition (Rattus norvegicus [3]): 14%; inhibition (Mu-type opioid receptor [4]): 12%; inhibition [5]: < 10%; inhibition [6]: < 10%; inhibition [7]: 27%; inhibition [8]: < 10%; inhibition (Rattus norvegicus [9]): < 10%; inhibition [10]: < 10%; inhibition (Histamine H2 receptor): < 10%; inhibition [11]: < 10%; inhibition (Mu-type opioid receptor [12]): < 10%; IC50 [13]: 43 nM; IC50 [14]: 14 nM; IC50 [15]: 3.4 nM; inhibition [16]: -3%; Emax at 16 h, 10 µM (PXR (NR1I2)): 195%; INH (Cytochrome P450 2C8): 3.8 µM
